From a melting point compilation (Tetko et al.; mined from patent text by program, amines drawn as free bases though some values may be those of a salt)

Row | Compound | melting point [°C]
1 | CCOC(=O)N1CCc2[nH]c(=O)n3nc(-c4ccccc4F)nc3c2C1 | 307 to 311
2 | Fc1ccc(F)c(CN2CCNc3ncc(-c4ccc(N5CCOCC5)cc4)cc32)c1Cl | 217 to 219
3 | O=[N+]([O-])c1cnc2ccc(F)cc2c1O | 313
4 | O=C(NCc1ccc2c(c1)-c1[nH]nc(-c3ccsc3)c1C2)c1cccnc1 | 286
5 | CC1(COc2cc(/C=C/C(=O)O)n(Cc3ccc(C(F)(F)F)cc3Cl)n2)COC1 | 148 to 149
6 | Cc1ccccc1-c1ncc(NC(=O)OCc2ccccc2)c(=O)n1CC(=O)NC(Cc1ccccc1)C(=O)C(F)(F)F (centres undefined) | 127 to 129
7 | COC(=O)C(=CN(C)C)C(=O)C=Cc1ccc(Cl)cc1 | 78 to 80
8 | NCc1ccc2ccnc(N)c2c1 | 114 to 117
9 | O=C1c2ccc(OC(c3ccccc3)c3ccccc3)cc2OCC1Cc1cccnc1 (centres undefined) | 45
10 | NC(=O)c1c(N)sc(-c2ccc(F)cc2)c1-c1ccccc1 | 205 to 207
11 | COC(=O)c1c(-c2ccc(OC)cc2)sc2cc(OC)ccc12 | 85.4 to 86.6
12 | COP(=O)(Nc1cc(C(C)C)ccc1N1CCOCC1)OC | 97 to 98
13 | CCc1nc2c(N)nc3ccccc3c2n1CCCCNC(=O)c1ccccc1 | 203 to 206
14 | COc1ccc2cc(C#CC(C)(C)O)ccc2c1 | 118 to 119
15 | CC1=C(C(=O)Nc2cnc3c(C)cc(C)cc3c2-c2ccccc2Cl)Sc2ccccc2N1 | 177 to 178
16 | O=C(NCC(O)c1ccccc1)C1CCCCC1 (centres undefined) | 118 to 119
17 | CN(C)C(=S)C(O)c1ccccc1C(F)(F)F (centres undefined) | 112 to 115
18 | COc1ccc2c(c1)C(=O)N(c1ccc3[nH]c(=O)ccc3c1)C2 | 305 to 310
19 | CNC1(c2ccccc2)CCC(=O)CC1 | 32 to 38
20 | OCCOC1=Nc2ccc(Cl)cc2C(c2ccccc2)=NC1 | 142 to 144
21 | O=c1[nH]c2ccc(CCN3CCN(c4nncc5ccccc45)CC3)cc2o1 | 200
22 | CC1NC(=O)NN=C1c1ccc(NCCO)cc1 (centres undefined) | 182 to 185
23 | COC(=O)c1cc2ccccc2nc1C(=O)OC | 105 to 106
24 | CC1=Nc2c(C)nn(C)c2C2=NC(C)C(C)N12 (centres undefined) | 280
25 | COc1cc2c(c(OC(C)=O)c1)C1CCC3(C)C(=O)C(Cl)CC3C1CC2 (centres undefined) | 164 to 166
26 | COc1ccc(Cc2cnc(N)nc2N)cc1OCCCNS(=O)(=O)c1ccc(NC(C)=O)cc1 | 96 to 98

Row | Compound | melting point [°C]
27 | Cc1nc(Nc2ccccc2)sc1-c1nc2ccccc2c(=O)n1-c1ccccc1 | 260 to 262
28 | O=C(CCCCCCCCC(=O)Oc1ccc(C(=O)OCc2ccccc2)cc1)Oc1ccc(C(=O)OCc2ccccc2)cc1 | 62.5 to 63
29 | Cc1ccc(C(=O)CCCCC(=O)O)cc1 | 147 to 148
30 | COCCN1C(=O)C(C)(C)C(=O)Nc2ccc(C#N)cc21 | 247 to 248
31 | COC(=O)C(C)(C)OCC#Cc1cc(Cl)ccc1NS(=O)(=O)c1ccc2nc(NC(C)=O)sc2c1 | 80
32 | Cc1ccn(Cc2ccc(Cl)c(Cl)c2)c(=O)c1C#N | 178 to 180
33 | CN(C)C=C(C#N)C(=O)c1cc(F)c(F)c(F)c1F | 149 to 151
34 | COc1cc2c(cc1OC)N(C)C(=O)CN=C2c1cccc(-c2ccc(Cl)cc2)c1 | 131
35 | COc1cc(CCl)c(CCl)cc1OCCCl | 117 to 118
36 | COc1cc(C)c(C(=O)c2c(C(F)(F)F)ccnc2Cl)c(OC)c1OC | 59 to 62
37 | OCC(CO)n1nnnc1S | 138
38 | Cc1cccc(Nc2nc(-c3cc(-c4ccccc4)no3)cs2)n1 | 291 to 293
39 | COc1ccc(C=C(C#N)C#N)c2c1OC(C)(C)C2 | 198 to 200
40 | CC(C)(C)OC(=O)NC1CCCCc2cc(OCC3CCCCC3)ccc21 (centres undefined) | 125 to 126
41 | CN1CCCc2c1cc[nH]c2=O | 260
42 | Cc1c(-c2ccccc2)c(N2CC[C@H](N(C)C)C2)c2oc(C(=O)N(C)CCc3ccccc3)nc2c1C#N | 138 to 141
43 | CN(C)c1c(Cl)cc(C(O)C#Cc2ccc(C(=O)O)cc2)cc1C(C)(C)C (centres undefined) | 120
44 | CN1CS(=O)c2cccc(F)c21 (centres undefined) | 122 to 124
45 | O=C1NCCC1Cc1ccccc1 (centres undefined) | 112 to 113
46 | CC(=O)N1CCC(c2nc3cccc4c3n2CCC4)CC1 | 139 to 140
47 | COc1ccc(Nc2nc(Cl)cc3ccccc23)cc1 | 101
48 | O=C(CCC1CCCCC1)NC1N=C(c2ccccc2)c2ccccc2NC1=NO (centres undefined) | 196
49 | O=C1NCNC12CCCc1ccccc12 (centres undefined) | 181 to 183
50 | Cc1nn(-c2cc(OC(C)C)c(Cl)cc2Cl)c(=O)[nH]c1=O | 163 to 164
51 | COc1ccc(NC(=O)c2ccccc2-c2cccc(F)c2)cc1 | 161 to 163
52 | COc1cc2c(c(OC(C)=O)c1)C1CCC3(C)C(=O)CCC3C1CC2 (centres undefined) | 144 to 145

Row | Compound | melting point [°C]
53 | Cc1cc(SC2=C(O)CC(CCc3ccc(O)cc3)(CCc3ccc(O)cc3)OC2=O)c(C(C)(C)C)cc1N | 140 to 145
54 | CCOC(=O)c1cc2c(nc1C)CCCCC2 | 53 to 54
55 | Brc1ccc2cc(OCc3ccccc3)c(C34CC5CC(CC(C5)C3)C4)cc2c1 | 150 to 151
56 | CCOC(=O)/C(F)=C/c1ccc(Br)cc1 | 59 to 61
57 | CC(C)(C)C(=O)Oc1ccc(C(=O)c2ccc(Cl)cc2)cc1 | 113 to 114
58 | CS(=O)(=O)c1ccc(C2=C(c3ccc(Cl)c(Cl)c3)CCC2)cc1 | 100 to 101
59 | CC(C)(C)c1cc(C(=O)Nc2cccc(SCc3cccnc3)c2)ccc1O | 95 to 100
60 | Nc1nc(N)nc(C2(c3ccccc3)CCCCC2)n1 | 153 to 155
61 | O=C(Nc1ccc(N(Cc2ccccc2)C(=O)OCc2ccccc2)c(F)c1)OCc1ccccc1 | 101 to 102
62 | Cc1ccc(C(=O)O)cc1NC(=O)C(CS)Cc1ccccc1 (centres undefined) | 192 to 194
63 | CC(C)(CO)CCCCCCC(O)CCCCCCC(C)(C)CO | 75 to 77
64 | CC(=O)c1ccc(-c2ccc(S(C)(=O)=O)cc2)o1 | 160 to 164
65 | Cc1ccc2c(c1)C(C(=O)Nc1c(C)cccc1Cl)c1ccccc1CO2 (centres undefined) | 160 to 161
66 | O=C(NN=Cc1ccccc1)c1ccc(O)cc1 | 226
67 | O=c1[nH]nc2n1C=Cc1ccccc1C2 | 208 to 210
68 | CN1CC(c2ccc(S(C)(=O)=O)cc2)=C(c2ccc(F)cc2)C1=O | 111
69 | O=[N+]([O-])N=C1SCCN1Cc1ccc(Cl)nc1 | 137 to 138
70 | CCc1c(Sc2cc(Cl)cc(Cl)c2)c(CO)nn1CCO | 89 to 90
71 | COc1ccc(-n2ncc(C(=O)N[C@H](C)[C@](O)(Cn3cncn3)c3ccc(F)cc3F)c2C)cc1 | 176 to 177
72 | CCNC(=O)c1c(Cl)ccc(Br)c1[Si](C)(C)C | 155 to 157
73 | CC1(C)C(=O)Nc2cc3oc(-c4csnn4)nc3cc21 | > 250
74 | Cc1oc2c(Br)cc(C=O)cc2c1C | 126
75 | COc1ccc(C(C[N+](=O)[O-])SC(=S)N(C)C)cc1 (centres undefined) | 86 to 89
76 | CC[C@H]1COC(=O)N1c1cc(C)nc(Oc2c(C)cc(Cl)cc2C)c1C(=O)OC | 144 to 146
77 | COC(=O)c1cccc(C=C(C)[N+](=O)[O-])c1O | 119 to 121
78 | CC1(C)C(=O)Oc2ccc(OS(C)(=O)=O)cc21 | 120 to 121

Row | Compound | melting point [°C]
79 | COc1ccc2c(c1)Cc1c-2[nH]c2ccc(OCc3ccccc3)cc12 | 189 to 193
80 | Nc1ccc(-n2cnnc2)cc1C(F)(F)F | 196 to 198
81 | CCOP(=O)(Cc1ccccc1CN1C(=O)c2ccccc2C1=O)OCC | 91 to 92
82 | O=C(Nc1cccnn1)N1CCN(c2nccc(-c3ccc(F)c(F)c3)n2)CC1 | 218 to 219
83 | C[C@@H](NS(=O)(=O)N1CCN(c2ccc(OCc3ccc4ccccc4c3)cc2)CC1)C(=O)O | 167 to 171
84 | CCOC(=O)CNCC1CC2c3cccc4[nH]cc(c34)CC2N(C)C1 (centres undefined) | 174 to 176
85 | COc1ccc(C(O)CNCc2cccc(OC)c2C)cc1OC (centres undefined) | 135 to 136
86 | O=C1OCCC=C1c1ccccc1 | 100 to 101
87 | CCNC(=O)c1ccc(N2CCN(Cc3cc4c(c(OCC)c3)OC(C)C(=O)N4)CC2)c(C)c1 (centres undefined) | 200
88 | CCOCCn1cc2c(C3C(=O)Nc4ccc(Cl)cc43)nc(NCC(C)O)nc2n1 (centres undefined) | > 300
89 | CCCc1nc(OC)c(NC(=O)N2CCN(c3cc(C)cc(C)c3)CC2)cc1C(=O)NC(C)C(=O)Nc1cc(CO)cc(Nc2c3ccccc3nc3ccccc23)c1 (centres undefined) | 195 to 197
90 | CCOc1cc(-c2cc(C(F)F)n3ncc(C(=O)O)c3n2)ccc1C(F)(F)F | 247
91 | NC(=O)O[C@@](c1cc(F)cc(Cl)c1)(c1cc2cn[nH]c2cc1F)[C@@H]1CCCCN1 | 220
92 | CCCCCCCCCCCCCCCCCCOc1cccc(CC(=O)N(CC(=O)OC)CC(=O)OC)c1 | 52 to 55
93 | CSc1cc2c(cc1SC)C(=O)c1cc3ccccc3cc1C2=O | > 260
94 | Nc1ccccc1CCN1CCCCC1 | 36 to 38
95 | CCCCn1c(C(=O)c2cc(C)cc(CCC#N)c2)c(C(C)C)c(=O)[nH]c1=O | 172 to 173
96 | CC(C)(C)OC(=O)C=Cc1ccc(C[C@H](NC(=O)OC(C)(C)C)C(=O)OC(c2ccccc2)c2ccccc2)cc1 | 135 to 137
97 | O=C(NCCN1CCOCC1)c1nnc2ccccc2c1O | 196 to 198
98 | CN(C)c1ccc(-c2cc(C(F)(F)F)c3c(-c4ccccc4)n[nH]c3n2)cc1 | 227
99 | O=C(O)Cc1ccc(-c2ccc(O)cc2)c(F)c1 | 208 to 210
100 | O=C(O)c1ccc(O)c(Oc2ccccc2)c1 | 181 to 183
101 | O=C(O)C(Cc1ccccc1)Oc1c(Br)cc(-c2ccc(-c3c(Cc4ccccc4)sc4ccccc34)cc2)cc1Br (centres undefined) | 87 to 89
102 | CNc1nc(-c2cccc(-c3cnc4ccccc4c3)c2)c2cc(OC)c(OC)cc2n1 | 218 to 220
103 | CC(CS)C(=O)NC(CC(=O)O)C(=O)O (centres undefined) | 129 to 131
104 | Clc1cccc2c(CN3CCN(c4ccc5c(c4)OCO5)CC3)n[nH]c12 | 173 to 174
